These results are taken from US20220323471A1 (priority 2019, published 2022).

In general, IC50 refers to the concentration that inhibits the measured activity by half.

Like-named read-outs stand apart in the source and are kept apart here.

For data set [1], the system named is endosomes and lysosomes of HT1080 cells. The data set is described as follows: Acridine Orange fluorescence, endosomal/lysosomal acidification. In kind it is cell-based, human. The settings on record: 4 hours pre-incubation, DGP, diphyllin, 6DG 2, 1 or 0.1 μM, Bafilomycin 100 nM, NH4Cl 25 mM. Here is the method:
To determine whether DGP inhibited ZIKV infection by preventing the acidification of endosomes and lysosomes, Acridine Orange (AO) was used, a cell-permeable fluorescent dye marker that accumulates in low pH compartments such as endosomes and lysosomes.
HT1080 cells were pre-incubated for 4 hours with the Bafilomycin (FIG. 10A, 100 nM), NH4Cl (FIG. 10A, 25 mM), DGP (FIG. 10B: 2 μM, 1 μM, or 0.1 μM) diphyllin (FIG. 10C: 2 μM, 1 μM, or 0.1 μM), or 6DG (FIG. 10C: 2 μM, 1 μM, or 0.1 μM) to test whether DGP prevents endosomal/lysosomal acidification. After staining the cells with 1 μg/mL of AO, changes in fluorescence were measured using a Celesta flow cytometer on the PerCP-Cy5-5-A channel. A shift in the AO fluorescence is indicated with an arrow in FIGS. 10A-10D.
Acridine Orange (Invitrogen) staining was performed as described previously (Kanzawa, T. et al. 2004, “Role of autophagy in temozolomide-induced cytotoxicity for malignant glioma cells.” Cell Death Differ 11(4): 448-457). Cells were stained with 1 μg/mL AO in 10% FBS DMEM for 30 min at 37° C. and then collected by trypsinization. Changes in fluorescence were measured using a Celesta flow cytometer in the PerCP-Cy5-5-A channel.

Data set [2] relates to DENV1-RVP. The data set is classed as cell-based, dengue virus. Conditions: VERO cells; DGP 1 μM; NH4Cl 20 mM.
The subject of data set [3] is WNV-RVP. The data set is classed as cell-based, West Nile virus. The settings on record: VERO cells; DGP 1 μM; NH4Cl 20 mM.
For data set [4], the system named is TBEV-RVP. The data set is classed as cell-based, tick-borne encephalitis virus.
Data set [5] has as its system Sendai Virus (SeV). The data set is described as follows: Sendai Virus infection and IFN-β production in CHME3 cells. In kind it is cell-based. The settings on record: SeV MOI 1 and 10, DGP 1 μM, NH4Cl 20 mM. Here is the method:
The Flaviviridae family of viruses encode a glycoprotein that is necessary to achieve fusion at the endosomal/lysosomal membranes, the step that releases viral components into the cytoplasm. […] Instead, SeV fuses at the plasma membrane. To this end, IFN-β production and viral infection were measured in CHME3 cells infected with SeV at an MOI 1 and 10 in the presence of DGP (1 μM) or 20 mM NH4Cl.
To detect viral copies of ZIKV and Sendai Virus (SeV) by qRT-PCR, cells were seeded in 24-well plates, with or without DGP treatment, and infected with the virus at the indicated MOI for 48 h. After the incubation period, total RNA from HT1080, VERO, and CHME3 cells was isolated and purified using Trizol (Invitrogen). For detection of ZIKV viral load in brain and spleen, 3 mice were sacrificed at 6 days post-infection and total RNA was extracted from the brain and spleen. For cDNA synthesis, 1 ng of total RNA was reverse transcribed. The reaction mixture included 1 mM of deoxyribonucleotide phosphates (dNTPs), 2 nM of the specific reverse primer of ZIKV or SeV, 1× M-MULV buffer, 10 U M-MuLV RT (BioLabs), and 2 U of RNase Inhibitor. The reaction mixture was incubated for 1 hour at 42° C. followed by 20 min at 65° C. to inactivate the enzyme. For actin detection, Oligo-dT was used to reverse transcribe total RNA.
ZIKV RNA levels were measured using real-time PCR. HT1080 and VERO cells were challenged by ZIKV MR766 at an MOI of 1 in the presence of DGP. At 48 hours post-challenge, cells were lysed and total RNA was extracted using trizol. Total RNA was used to determine the levels of ZIKV RNA by real-time PCR using specific primers against ZIKA. qRT-PCR was carried out using SYBR green in a 20-μl final volume using a MASTERCYCLER proS machine. The primers used to detect ZIKV were: SEQ ID NO. 1: 5′-TT […]-3′-Forward (Genome Position 941-964) and SEQ ID NO. 2: 5′-[…]-3′-Reverse (Genome position 1123-1103) (AY632535.2). For the detection of SeV, the following primers were used: SEQ ID NO. 3: 5′-[…]-3′-Forward (Genome position 210-233) and SEQ ID NO. 4: 5′-[…]-3′-Reverse (Genome position 332-307) (M30202. Genome position 210-332) (Wagner, A. M. et al. 2003, “Detection of sendai virus and pneumonia virus of mice by use of fluorogenic nuclease reverse transcriptase polymerase chain reaction analysis.” Comp Med 53(2): 173-177). For the detection of IFN-β the following primers were used: SEQ ID NO. 5: Forward 5-[…]-3′ (Genome position 644-668) and SEQ ID Na 6: Reverse 5′-[…]-3′ (Genome position 718-697) (NM_002176.2) and for actin detection: SEQ ID NO. 7: 5′-[…]-′3-Forward and SEQ ID NO. 8: 5′-[…]′3-Reverse. ZIKA viral RNA levels were normalized to actin (upper panels). […]

In data set [6] the test system is ZIKV strain MR766. Nature of the data set: ZIKV strain MR766 infection, 4G2 antibody flow cytometry. Conditions: for IC50: Zika virus. (In general: A flow cytometer gives signals particle by particle.)
Data set [7] relates to EBV RVP. In kind it is cell-based, Ebola virus.
For data set [8], the system named is JEV-RVP. The data set is classed as cell-based, Japanese encephalitis virus. The settings on record: VERO cells; DGP 1 μM; NH4Cl 20 mM.
Data set [9] has as its system ZIKV. The settings on record: cited from earlier work.
Data set [10] concerns HT1080, CHME3, VERO cells. The data set is described as follows: MTT cell viability assay. In kind it is cell-based, human and monkey. The settings on record: human or monkey cells (HT1080, CHME3, VERO); 48 hours. As to the method: Cell viability was determined by measuring the reduction of the tetrazolium dye MTT [3-(4,5-dimethylthiazol-2-yl)-2,5-diphenyltetrazolium bromide] to its insoluble form formazan. We treated 4×10^3 cells/well in a 96-well plate with serial dilutions of the indicated drugs. Human and monkey cells were incubated with DGP, diphyllin, or 6-deoxy-D-glucose for 48 hours at 37° C. After the incubation period, 10 μl MTT solution (5 mg/mL) was added to each well for an additional 4 hours at 37° C. Finally, the media was removed and dimethyl sulfoxide was added (200 μl/well) according to the manufacturer's instructions. The optical density was measured at 570 nm using a microplate reader. Experiments were performed in triplicates and standard deviations are shown. Mock-treated cells represent 100% viability.

`C[C@@H](O)[C@@H](O)[C@H](O)[C@@H](O)C=O` [Formula 6DG, 6-deoxyglucose, reference compound]: the “acidification of endosomes and lysosomes (AO fluorescence)” value (from here on “acidification of endosomes and lysosomes”) in data set [1] is given as “did not prevent”.

Regarding `Cl.N` [NH4Cl, ammonium chloride, reference compound], in data set [2], the “DENV1 RVP infection” value is given as “inhibited infection”. Also, the “WNV RVP infection” value in data set [3] is “inhibited infection”. For the same compound, the “TBEV RVP infection” value in [4] was “inhibited infection”. In addition, in [5], the “IFN-β production in SeV-infected cells” value is given as “increased induction” and the “SeV infection / viral replication” value is reported as “increased viral replication”. Also, in data set [6] (CHME3 cells, MOI 1, DGP 0.1 and 1 μM, NH4Cl 20 mM, 48 hours), the “percentage of 4G2-positive cells” value is “substantial decrease”. For the same compound, in [7], the “EBV RVP infection” value is recorded as “inhibited infection”. In addition, in data set [1], the “acidification of endosomes and lysosomes” value was “prevent endosomal and lysosomal acidification”. In addition, the “JEV RVP infection” value in data set [8] is on record as “inhibited infection”.

`CCN(CC)CCCC(C)Nc1ccnc2cc(Cl)ccc12` (stereo not shown) [chloroquine]: in data set [9], the “required inhibitory concentrations for ZIKV in cell culture” value is reported as “micromolar range”.

For `COc1cc2c(O)c3c(c(-c4ccc5c(c4)OCO5)c2cc1OC)C(=O)OC3` [diphyllin, Diphyllin], the “toxicity at concentrations required to inhibit ZIKV infection (MTT)” value in [10] is “not toxic”. Besides, the IC50 is 60 nM in data set [6] (HT-1080, read-out: IC50, ZIKV infection) and 210 nM in [6] (read-out: IC50, ZIKV infection). Further, the “acidification of endosomes and lysosomes” value in [1] was “prevented the acidification of endosomes and lysosomes but to a lesser extent”.

For the compound `CCN(CCO)CCCC(C)Nc1ccnc2cc(Cl)ccc12` (stereo not shown) [hydroxychloroquine], the “required inhibitory concentrations for ZIKV in cell culture” value in data set [9] is given as “micromolar range”.
